Reference: US11293024B2, “Antisense antibacterial compounds and methods” (priority 2014, dated 2022)

System: existing P. aeruginosa PAO1 biofilm
Assay: Biofilm reduction in MBEC plate (crystal violet)
Format: cell-based, Pseudomonas aeruginosa
Conditions: at 10 and 5 μM; 2 μg/mL PMBN; 48 hour biofilm
Protocol: P. aeruginosa PAO1 (5×10^5 cfu/mL) was grown in an MBEC plate for 24 hours. At 24 hours, the pegs were moved to a new 96-well plate containing fresh MHII media and either scrambled, RpsJ, or AcpP PPMO at the indicated concentrations. All wells containing PPMOs (including Scrambled) contained 2 μg/mL of PMBN. The pegs were again moved to new plates with or without PPMOs at 32 and 40 hours. Pegs were processed for crystal violet or visualized with microscopy at 48 hours. […] FIGS. 7B-7D: Spinning Disk confocal microscopy images of 48 hour biofilm treated with (FIG. 7B) 10 μM Scr PPMO #42, (FIG. 7C) 2.5 μM AcpP PPMO #35, (FIG. 7D) 10 μM AcpP PPMO #35. Green channel is PAO1 GFP; Red channel is biofilm stained with 200 μg/mL of Concanavalin A, Alexafluor 647 conjugate.
Pseudomonas aeruginosa Biofilm Reduction in MBEC Plate Protocol
• 1. 10 mL of MH is inoculated with a single colony and incubated at 37° C. and ˜250 rpm for about 5 hours. • 2. The sample is centrifuged for 10 minutes at ˜4000 rpm at 4° C., the supernatant decanted and the pellet resuspended in 10 mL of 150 mM NaCl or PBS. This step is repeated to wash the pellet 3 times. • 3. […] The OD600 of the sample is taken and cfu/mL is calculated. […]
1. […] The final OD570 of the 10× dilution of solution should be approximately 0.500 absorbance. […]
2. OD reading: The OD570 for the 96-well plate from step 1e is determined. […]

## PPMO #14: RpsJ PMO GCATTTGACCT, 5′ TEG, 3′ (RXR)4XB CPP
  reduction of existing biofilm (crystal violet): statistically significant reduction of biofilm
